pIC50: −log10 of the molar value.
These compounds were tested against recombinant CD73 (Homo sapiens (Human), UniProt P21589) (assay: Inhibition of the CD73 enzyme in vitro (soluble recombinant CD73, AMP, Malachite Green)). Conditions: recombinant CD73 0.5 nM, AMP 50 μM, 30 minutes at room temperature.
Type: biochemical
Description: The concentration of inorganic phosphate was determined using a phosphate standard curve.

Chain of recombinant CD73 (P21589 27-547): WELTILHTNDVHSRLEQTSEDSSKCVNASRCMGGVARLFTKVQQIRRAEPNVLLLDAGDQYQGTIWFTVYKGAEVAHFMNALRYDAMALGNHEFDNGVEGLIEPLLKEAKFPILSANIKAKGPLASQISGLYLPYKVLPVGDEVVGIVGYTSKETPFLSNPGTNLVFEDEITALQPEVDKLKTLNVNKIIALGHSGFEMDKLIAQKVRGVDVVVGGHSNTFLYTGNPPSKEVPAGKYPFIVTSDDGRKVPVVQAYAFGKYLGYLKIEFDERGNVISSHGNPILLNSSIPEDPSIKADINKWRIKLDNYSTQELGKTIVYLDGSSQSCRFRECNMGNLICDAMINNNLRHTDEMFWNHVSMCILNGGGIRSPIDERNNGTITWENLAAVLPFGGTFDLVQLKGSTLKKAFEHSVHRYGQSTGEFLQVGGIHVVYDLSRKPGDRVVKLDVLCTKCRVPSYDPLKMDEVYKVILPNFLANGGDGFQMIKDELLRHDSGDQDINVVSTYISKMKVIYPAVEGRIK

| SMILES | pIC50 |
| --- | --- |
| CCOC(=O)C(Cc1ccc(OC(F)(F)F)cc1)(OC[C@H]1O[C@@H](n2cnc3c(N)nc(Cl)nc32)[C@@H](F)[C@@H]1O)C(=O)O (single isomer, unassigned) [compound 38] | 6.16 |
| Nc1nc(Cl)nc2c1ncn2[C@@H]1O[C@H](COC(Cc2cccc(Oc3ccccc3)c2)(C(=O)O)C(=O)O)[C@@H](O)[C@@H]1F [compound 13, 2-(((2R,3R,4S,5R)-5-(6-amino-2-chloro-9H-purin-9-yl)-4-fluoro-3-hydroxytetrahydrofuran-2-yl)methoxy)-2-(3-phenoxybenzyl)malonic acid] | 6.39 |
| Nc1nc(Cl)nc2c1ncn2[C@@H]1O[C@H](COC(Cc2cccc(C(F)(F)F)c2)(C(=O)O)C(=O)O)[C@@H](O)[C@@H]1F [compound 16, 2-(((2R,3R,4S,5R)-5-(6-amino-2-chloro-9H-purin-9-yl)-4-fluoro-3-hydroxytetrahydrofuran-2-yl)methoxy)-2-(3-(trifluoromethyl)benzyl)malonic acid] | 6.59 |
| Nc1nc(Cl)nc2c1ncn2[C@@H]1O[C@H](COC(Cc2ccc3ccccc3c2)(C(=O)O)C(=O)O)[C@@H](O)[C@@H]1F [compound 17, 2-(((2R,3R,4S,5R)-5-(6-amino-2-chloro-9H-purin-9-yl)-4-fluoro-3-hydroxytetrahydrofuran-2-yl)methoxy)-2-(naphthalen-2-ylmethyl)malonic acid] | 6.16 |
| CS(=O)(=O)c1ccc(CC(OC[C@H]2O[C@@H](n3cnc4c(N)nc(Cl)nc43)[C@@H](F)[C@@H]2O)(C(=O)O)C(=O)O)cc1 [compound 21, 2-(((2R,3R,4S,5R)-5-(6-amino-2-chloro-9H-purin-9-yl)-4-fluoro-3-hydroxytetrahydrofuran-2-yl)methoxy)-2-(4-(methylsulfonyl)benzyl) malonic acid] | 6.71 |
| O=C(O)C(Cc1ccccc1)(OC[C@H]1O[C@@H](n2cnc3c(NCc4ccccc4)nc(Cl)nc32)[C@@H](F)[C@@H]1O)C(=O)O [compound 28, 2-benzyl-2-(((2R,3R,4S,5R)-5-(6-(benzylamino)-2-chloro-9H-purin-9-yl)-4-fluoro-3-hydroxytetrahydrofuran-2-yl)methoxy)malonic acid] | 5.58 |
| Nc1nc(Cl)nc2c1ncn2[C@@H]1O[C@H](COC(Cc2nnn[nH]2)(C(=O)O)C(=O)O)[C@@H](O)[C@@H]1F [compound 50, 2-((1H-tetrazol-5-yl)methyl)-2-(((2R,3R,4S,5R)-5-(6-amino-2-chloro-9H-purin-9-yl)-4-fluoro-3-hydroxytetrahydrofuran-2-yl)methoxy)malonic acid] | 5.72 |
| Nc1nc(Cl)nc2c1ncn2[C@@H]1O[C@H](COC(Cc2ccccc2)(C(=O)O)C(=O)O)[C@@H](N)[C@H]1O [compound 51, 2-(((2S,3S,4R,5R)-3-amino-5-(6-amino-2-chloro-9H-purin-9-yl)-4-hydroxytetrahydrofuran-2-yl)methoxy)-2-benzylmalonic acid] | 5.73 |
| Nc1nc(Cl)nc2c1ncn2[C@@H]1O[C@H](COC(Cc2cccc(-c3nnn[nH]3)c2)(C(=O)O)C(=O)O)[C@@H](O)[C@@H]1F [compound 53, 2-(3-(1H-tetrazol-5-yl)benzyl)-2-(((2R,3R,4S,5R)-5-(6-amino-2-chloro-9H-purin-9-yl)-4-fluoro-3-hydroxytetrahydrofuran-2-yl)methoxy)malonic acid] | 6.35 |
| Nc1nc(Cl)nc2c1ncn2[C@@H]1O[C@H](COC(Cc2ccc(-c3nnn[nH]3)cc2)(C(=O)O)C(=O)O)[C@@H](O)[C@@H]1F [compound 54, 2-(4-(1H-tetrazol-5-yl)benzyl)-2-(((2R,3R,4S,5R)-5-(6-amino-2-chloro-9H-purin-9-yl)-4-fluoro-3-hydroxytetrahydro-furan-2-yl)methoxy)malonic acid] | 6.66 |
| Nc1nc(Cl)nc2c1ncn2[C@@H]1O[C@H](COC(Cc2cccc(O)c2)(C(=O)O)C(=O)O)[C@@H](O)[C@@H]1F [compound 56, 2-(((2R,3R,4S,5R)-5-(6-amino-2-chloro-9H-purin-9-yl)-4-fluoro-3-hydroxytetrahydrofuran-2-yl)methoxy)-2-(3-hydroxybenzyl)malonic acid] | 6.77 |
| Nc1nc(Cl)nc2c1ncn2[C@@H]1O[C@H](COC(Cc2ccc(C(=O)O)cc2F)(C(=O)O)C(=O)O)[C@@H](O)[C@@H]1F [compound 57, 2-(((2R,3R,4S,5R)-5-(6-amino-2-chloro-9H-purin-9-yl)-4-fluoro-3-hydroxytetrahydrofuran-2-yl)methoxy)-2-(4-carboxy-2-fluorobenzyl)malonic acid] | 6.85 |
| Nc1nc(Cl)nc2c1ncn2[C@@H]1O[C@H](COC(Cc2ccc(C(=O)O)c(F)c2)(C(=O)O)C(=O)O)[C@@H](O)[C@@H]1F [compound 58, 2-(((2R,3R,4S,5R)-5-(6-amino-2-chloro-9H-purin-9-yl)-4-fluoro-3-hydroxytetrahydro-furan-2-yl)methoxy)-2-(4-carboxy-3-fluorobenzyl)malonic acid] | 7.42 |

Further lines, results first:

| pIC50 | SMILES |
| --- | --- |
| 6.36 | Nc1nc(Cl)nc2c1ncn2[C@@H]1O[C@H](COC(Cc2ccc(C(F)(F)F)o2)(C(=O)O)C(=O)O)[C@@H](O)[C@@H]1F [compound 59, 2-(((2R,3R,4S,5R)-5-(6-amino-2-chloro-9H-purin-9-yl)-4-fluoro-3-hydroxytetrahydro-furan-2-yl)methoxy)-2-((5-(trifluoromethyl)-furan-2-yl)methyl)malonic acid] |
| 7.29 | Nc1nc(Cl)nc2c1ncn2[C@@H]1O[C@H](COC(Cc2ccc(C(F)(F)F)c(F)c2)(C(=O)O)C(=O)O)[C@@H](O)[C@@H]1F [compound 60, 2-(((2R,3R,4S,5R)-5-(6-amino-2-chloro-9H-purin-9-yl)-4-fluoro-3-hydroxytetrahydro-furan-2-yl)methoxy)-2-(3-fluoro-4-(trifluoromethyl)benzyl) malonic acid] |
| 5.65 | Nc1nc(Cl)nc2c1ncn2[C@@H]1O[C@H](COC(Cc2cc(-c3ccccc3)no2)(C(=O)O)C(=O)O)[C@@H](O)[C@@H]1F [compound 61, 2-(((2R,3R,4S,5R)-5-(6-amino-2-chloro-9H-purin-9-yl)-4-fluoro-3-hydroxytetrahydrofuran-2-yl)methoxy)-2-((3-phenylisoxazol-5-yl)methyl)malonic acid] |
| 5.91 | Nc1nc(Cl)nc2c1ncn2[C@@H]1O[C@H](COC(Cc2cnn(Cc3ccccc3)c2)(C(=O)O)C(=O)O)[C@@H](O)[C@@H]1F [compound 63, 2-(((2R,3R,4S,5R)-5-(6-amino-2-chloro-9H-purin-9-yl)-4-fluoro-3-hydroxytetrahydro-furan-2-yl)methoxy)-2-((1-benzyl-1H-pyrazol-4-yl)methyl)malonic acid] |
| 6.07 | Nc1nc(Cl)nc2c1ncn2[C@@H]1O[C@H](COC(Cc2cn[nH]c2)(C(=O)O)C(=O)O)[C@@H](O)[C@@H]1F [compound 64, 2-((1H-pyrazol-4-yl)methyl)-2-(((2R,3R,4S,5R)-5-(6-amino-2-chloro-9H-purin-9-yl)-4-fluoro-3-hydroxytetrahydrofuran-2-yl)methoxy)malonic acid] |
| 7.51 | Nc1nc(Cl)nc2c1ncn2[C@@H]1O[C@H](COC(Cc2ccc(OCc3ccccc3)cc2)(C(=O)O)C(=O)O)[C@@H](O)[C@@H]1F [compound 65, 2-(((2R,3R,4S,5R)-5-(6-amino-2-chloro-9H-purin-9-yl)-4-fluoro-3-hydroxytetrahydrofuran-2-yl)methoxy)-2-(4-(benzyloxy)benzyl)malonic acid] |
| 6.88 | Nc1nc(Cl)nc2c1ncn2[C@@H]1O[C@H](COC(Cc2ccc(O)cc2)(C(=O)O)C(=O)O)[C@@H](O)[C@@H]1F [compound 66, 2-(((2R,3R,4S,5R)-5-(6-amino-2-chloro-9H-purin-9-yl)-4-fluoro-3-hydroxytetrahydrofuran-2-yl)methoxy)-2-(4-hydroxybenzyl) malonic acid] |
| 6.49 | Nc1nc(Cl)nc2c1ncn2[C@@H]1O[C@H](COC(Cc2csc(C(=O)O)n2)(C(=O)O)C(=O)O)[C@@H](O)[C@@H]1F [compound 68, 2-(((2R,3R,4S,5R)-5-(6-amino-2-chloro-9H-purin-9-yl)-4-fluoro-3-hydroxytetrahydro-furan-2-yl)methoxy)-2-((2-carboxythiazol-4-yl)methyl)malonic acid] |
| 7.13 | Nc1nc(Cl)nc2c1ncn2[C@@H]1O[C@H](COC(Cc2csc(C(=O)O)c2)(C(=O)O)C(=O)O)[C@@H](O)[C@@H]1F [compound 76, 2-(((2R,3R,4S,5R)-5-(6-amino-2-chloro-9H-purin-9-yl)-4-fluoro-3-hydroxytetrahydro-furan-2-yl)methoxy)-2-((5-carboxythiophen-3-yl)methyl)malonic acid] |
| 6.59 | Nc1nc(Cl)nc2c1ncn2[C@@H]1O[C@H](COC(Cc2ccc(C(=O)O)s2)(C(=O)O)C(=O)O)[C@@H](O)[C@@H]1F [compound 77, 2-(((2R,3R,4S,5R)-5-(6-amino-2-chloro-9H-purin-9-yl)-4-fluoro-3-hydroxytetrahydro-furan-2-yl)methoxy)-2-((5-carboxythiophen-2-yl)methyl)malonic acid] |
| 7.07 | Nc1nc(Cl)nc2c1ncn2[C@@H]1O[C@H](COC(Cc2ccc(CC(=O)O)cc2)(C(=O)O)C(=O)O)[C@@H](O)[C@@H]1F [compound 78, 2-(((2R,3R,4S,5R)-5-(6-amino-2-chloro-9H-purin-9-yl)-4-fluoro-3-hydroxytetrahydrofuran-2-yl)methoxy)-2-(4-(carboxymethyl)benzyl) malonic acid] |
| 7.36 | Nc1nc(Cl)nc2c1ncn2[C@@H]1O[C@H](COC(Cc2ccc(Cl)cc2F)(C(=O)O)C(=O)O)[C@@H](O)[C@@H]1F [compound 80, 2-(((2R,3R,4S,5R)-5-(6-amino-2-chloro-9H-purin-9-yl)-4-fluoro-3-hydroxytetrahydrofuran-2-yl)methoxy)-2-(4-chloro-2-fluorobenzyl)malonic acid] |
| 5.19 | Nc1nc(Cl)nc2c1ncn2[C@@H]1O[C@H](COC(Cc2cc(C(=O)O)no2)(C(=O)O)C(=O)O)[C@@H](O)[C@@H]1F [compound 83, 2-(((2R,3R,4S,5R)-5-(6-amino-2-chloro-9H-purin-9-yl)-4-fluoro-3-hydroxytetrahydrofuran-2-yl)methoxy)-2-((3-carboxyisoxazol-5-yl)methyl)malonic acid] |

Same assay, conditions: recombinant CD73 0.5 nM, AMP 50 μM; class symbols (Table 4)

| pIC50 | SMILES |
| --- | --- |
| > 6.00 | CCOC(=O)C(Cc1ccccc1)(OC[C@H]1O[C@@H](n2cnc3c(NCc4ccccc4)nc(Cl)nc32)[C@H](O)[C@@H]1O)C(=O)OCC |
